In EP2818472A1, “Imidazo[4,5-c]pyridine and pyrrolo[3,2-c]pyridine compounds as G-protein-coupled receptor kinase 5 (GRK5) modulators” (Max-Planck-Gesellschaft zur Förderung der Wissenschaften …, priority 2013, dated 2014):

Test system: beta-TC6 cells
Assay: Insulin HTRF assay (relative activity Ar) in beta-TC6 cells
Format: cell-based, mouse
Settings: Mus musculus, Beta-TC6, 4 h, insulin HTRF, supernatant of beta-TC6 cells, incubation with test compound at 37°C for 2, 3, 4h; read-out: Ar (relative activity)
Source text: For further screening of compounds derived from compounds described above for their ability to regulate insulin release an insulin HTRF® (Homogeneous Time-Resolved Fluorescence; Cisbio International, France) was used. This assay is based on two antibodies against insulin binding to different epitopes of insulin. One of these antibodies is coupled to Europium (Ab-Eu-Cryptate) and the other one to the fluorophore XL665 (Ab-XL665). If the insulin is secreted into the supernatant of cell culture, both antibodies can bind to insulin and come therefore into close proximity, which allows upon excitation that energy transfer between (FRET) the long-life fluorescent donor Europium (cryptate) and the acceptors XL665. FRET increases proportionally with insulin concentration.
The automated assay protocol is as follows: • On day 1, 15k beta-TC6 cells per well were seeded for 24 or 48 h in 50 µL complete medium. On day 2 or respective on day 3, the medium is removed and cells are washed with 60 µL 1xPBS and 20 µL induction buffer is added using BioTek washer. Subsequently, 10 µL Sunitininb (5 -µM f.c.) or the test compound in induction buffer; 0.5% f.c. DMSO (CyBi-well) is transferred to the cells. The cells are then incubated at 37°C for 2, 3, 4h.
First 10 µL supernatant is transferred from the cell plates in HTRF plates (CyBi-well). 10 µL of 0, 1, 2, and 4 ng/ml insulin standard controls in assay medium is used as a control. To each well 10 µL of combined 1:25 Ab-XL665 (Acc) and 1:20 Ab-Eu-Cryptate (WellMate) are added and incubated for 120 min at RT in the dark. Finally HTRF is measured on ViewLux ultra high throughput microplate imager (PerkinElmer).
The evaluation software DataFactoty derives relative activities Ar according to the following equation: Ar = (V-R(0%control))/(R(100%control) -R0%control)) × 100 [formula]
The activity of the compounds was classified according to their Ar (relative activity) into the following ranges: […]

SMILES	Emax
N#Cc1ccc(Nc2cc3[nH]c(-c4ccccn4)cc3cn2)cc1 [Compound 68, 4-[[2-(2-pyridyl)-1H-pyrrolo[3,2-c]pyridin-6-yl]amino]benzonitrile]	50 to 100%
FC(F)(F)Oc1cccc(Nc2cc3[nH]c(-c4ccccn4)cc3cn2)c1 [Compound 69, 2-(2-pyridyl)-N-[3-(trifluoromethoxy)phenyl]-1H-pyrrolo[3,2-c]pyridin-6-amine]	30 to 50%
CN(C)C(=O)c1ccc(Nc2cc3[nH]c(-c4ccccn4)cc3cn2)cc1 [Compound 70, N,N-dimethyl-4-[[2-(2-pyridyl)-1H-pyrrolo[3,2-c]pyridin-6-yl]amino]benzamide]	> 100%
Fc1cccc(Nc2cc3[nH]c(-c4ccccn4)cc3cn2)c1 [Compound 71, N-(3-fluorophenyl)-2-(2-pyridyl)-1H-pyrrolo[3,2-c]pyridin-6-amine]	50 to 100%
CS(=O)(=O)c1ccc(Nc2cc3[nH]c(-c4ccccn4)cc3cn2)cc1 [Compound 72, N-(4-methylsulfonylphenyl)-2-(2-pyridyl)-1H-pyrrolo[3,2-c]pyridin-6-amine]	> 100%
CC(C)Oc1cccc(Nc2cc3[nH]c(-c4ccccn4)cc3cn2)c1 [Compound 73, N-(3-isopropoxyphenyl)-2-(2-pyridyl)-1H-pyrrolo[3,2-c]pyridin-6-amine]	50 to 100%
CC(=O)Nc1ccc(Nc2cc3[nH]c(-c4cccnc4)cc3cn2)cc1 [Compound 74, N-[4-[[2-(3-pyridyl)-1H-pyrrolo[3,2-c]pyridin-6-yl]amino]phenyl]acetamide]	> 100%
COc1ccc(Nc2cc3[nH]c(-c4cccnc4)cc3cn2)cn1 [Compound 75, N-(6-methoxy-3-pyridyl)-2-(3-pyridyl)-1H-pyrrolo[3,2-c]pyridin-6-amine]	> 100%
c1cncc(-c2cc3cnc(Nc4ccncc4)cc3[nH]2)c1 [Compound 76, 2-(3-pyridyl)-N-(4-pyridyl)-1H-pyrrolo[3,2-c]pyridin-6-amine]	30 to 50%
c1cncc(-c2cc3cnc(N4CCOCC4)cc3[nH]2)c1 [Compound 77, 4-[2-(3-pyridyl)-1H-pyrrolo[3,2-c]pyridin-6-yl]morpholine]	50 to 100%
Clc1ccccc1Nc1cc2[nH]c(-c3cccnc3)cc2cn1 [Compound 78, N-(2-chlorophenyl)-2-(3-pyridyl)-1H-pyrrolo[3,2-c]pyridin-6-amine]	50 to 100%
Fc1ccc(C(F)(F)F)cc1Nc1cc2[nH]c(-c3cccnc3)cc2cn1 [Compound 79, N-[2-fluoro-5-(trifluoromethyl)phenyl]-2-(3-pyridyl)-1H-pyrrolo[3,2-c]pyridin-6-amine]	30 to 50%
CC(=O)Nc1cccc(Nc2cc3[nH]c(-c4cccnc4)cc3cn2)c1 [Compound 80, N-[3-[[2-(3-pyridyl)-1H-pyrrolo[3,2-c]pyridin-6-yl]amino]phenyl]acetamide]	> 100%
CC(C)Oc1ccc(Nc2cc3[nH]c(-c4cccnc4)cc3cn2)cc1 [Compound 81, N-(4-isopropoxyphenyl)-2-(3-pyridyl)-1H-pyrrolo[3,2-c]pyridin-6-amine]	30 to 50%
COc1cc(Nc2cc3c(cn2)cc(-c2cccnc2)n3C)cc(OC)c1OC [Compound 82, 1-methyl-2-(3-pyridyl)-N-(3,4,5-trimethoxyphenyl)pyrrolo[3,2-c]pyridin-6-amine]	50 to 100%
COc1ccc(Nc2cc3c(cn2)cc(-c2cccnc2)n3C)c(OC)c1 [Compound 83, N-(2,4-dimethoxyphenyl)-1-methyl-2-(3-pyridyl)pyrrolo[3,2-c]pyridin-6-amine]	50 to 100%
Cn1c(-c2cccnc2)cc2cnc(Nc3ccc4c(c3)OCCO4)cc21 [Compound 84, N-(2,3-dihydro-1,4-benzodioxin-6-yl)-1-methyl-2-(3-pyridyl)pyrrolo[3,2-c]pyridin-6-amine]	50 to 100%
COc1ccc(Nc2cc3c(cn2)cc(-c2cccnc2)n3C)cc1OC [Compound 85, N-(3,4-dimethoxyphenyl)-1-methyl-2-(3-pyridyl)pyrrolo[3,2-c]pyridin-6-amine]	50 to 100%
COc1ccc(Nc2cc3c(cn2)cc(-c2cccnc2)n3C)cn1 [Compound 86, N-(6-methoxy-3-pyridyl)-1-methyl-2-(3-pyridyl)pyrrolo[3,2-c]pyridin-6-amine]	50 to 100%
Cn1c(-c2cccnc2)cc2cnc(Nc3cccnc3)cc21 [Compound 87, 1-methyl-N,2-bis(3-pyridyl)pyrrolo[3,2-c]pyridin-6-amine]	50 to 100%

SMILES	Emax
Cn1c(-c2cccnc2)cc2cnc(Nc3ccccc3)cc21 [Compound 88, 1-methyl-N-phenyl-2-(3-pyridyl)pyrrolo[3,2-c]pyridin-6-amine]	30 to 50%
CN(C)c1cccc(Nc2cc3c(cn2)cc(-c2cccnc2)n3C)c1 [Compound 89, N1,N1-dimethyl-N3-[1-methyl-2-(3-pyridyl)pyrrolo[3,2-c]pyridin-6-yl]benzene-1,3-diamine]	50 to 100%
Cc1cccc(Nc2cc3c(cn2)cc(-c2cccnc2)n3C)c1 [Compound 90, 1-methyl-N-(m-tolyl)-2-(3-pyridyl)pyrrolo[3,2-c]pyridin-6-amine]	30 to 50%
COc1ccc(Nc2cc3c(cn2)cc(-c2cccnc2)n3C)cc1 [Compound 91, N-(4-methoxyphenyl)-1-methyl-2-(3-pyridyl)pyrrolo[3,2-c]pyridin-6-amine]	50 to 100%
Cn1c(-c2cccnc2)cc2cnc(Nc3ccc(F)cc3)cc21 [Compound 92, N-(4-fluorophenyl)-1-methyl-2-(3-pyridyl)pyrrolo[3,2-c]pyridin-6-amine]	0 to 30%
Cn1c(-c2cccnc2)cc2cnc(Nc3ccc4c(c3)OCO4)cc21 [Compound 93, N-(1,3-benzodioxol-5-yl)-1-methyl-2-(3-pyridyl)pyrrolo[3,2-c]pyridin-6-amine]	50 to 100%
Cn1c(-c2cccnc2)cc2cnc(N3CCOCC3)cc21 [Compound 94, 4-[1-methyl-2-(3-pyridyl)pyrrolo[3,2-c]pyridin-6-yl]morpholine]	30 to 50%
CN(C)C(=O)c1ccc(Nc2cc3c(cn2)cc(-c2cccnc2)n3C)cc1 [Compound 95, N,N-dimethyl-4-[[1-methyl-2-(3-pyridyl)pyrrolo[3,2-c]pyridin-6-yl]amino]benzamide]	50 to 100%
CC(=O)Nc1cccc(Nc2cc3c(cn2)cc(-c2cccnc2)n3C)c1 [Compound 96, N-[3-[[1-methyl-2-(3-pyridyl)pyrrolo[3,2-c]pyridin-6-yl]amino]phenyl]acetamide]	50 to 100%
CC(=O)c1cccc(Nc2cc3c(cn2)cc(-c2cccnc2)n3C)c1 [Compound 97, 1-[3-[[1-methyl-2-(3-pyridyl)pyrrolo[3,2-c]pyridin-6-yl]amino]phenyl]ethanone]	30 to 50%
c1ccc(Cn2c(-c3cccnc3)cc3cnc(Nc4ccccn4)cc32)cc1 [Compound 98, 1-benzyl-N-(2-pyridyl)-2-(3-pyridyl)pyrrolo[3,2-c]pyridin-6-amine]	30 to 50%
c1ccc(Cn2c(-c3cccnc3)cc3cnc(Nc4ccncn4)cc32)cc1 [Compound 99, 1-benzyl-2-(3-pyridyl)-N-pyrimidin-4-yl-pyrrolo[3,2-c]pyridin-6-amine]	30 to 50%
COc1cc(Nc2cc3[nH]c(-c4cncn4C)cc3cn2)cc(OC)c1OC [Compound 100, 2-(3-methylimidazol-4-yl)-N-(3,4,5-trimethoxyphenyl)-1H-pyrrolo[3,2-c]pyridin-6-amine]	> 100%
COc1cccc(Nc2cc3[nH]c(-c4cncn4C)cc3cn2)c1 [Compound 101, N-(3-methoxyphenyl)-2-(3-methylimidazol-4-yl)-1H-pyrrolo[3,2-c]pyridin-6-amine]	50 to 100%
COc1ccc(Nc2cc3[nH]c(-c4cncn4C)cc3cn2)cc1OC [Compound 102, N-(3,4-dimethoxyphenyl)-2-(3-methylimidazol-4-yl)-1H-pyrrolo[3,2-c]pyridin-6-amine]	> 100%
Cn1cncc1-c1cc2cnc(Nc3cccc(Cl)c3)cc2[nH]1 [Compound 103, N-(3-chlorophenyl)-2-(3-methylimidazol-4-yl)-1H-pyrrolo[3,2-c]pyridin-6-amine]	30 to 50%
CN(C)c1cccc(Nc2cc3[nH]c(-c4cncn4C)cc3cn2)c1 [Compound 104, N1,N1-dimethyl-N3-[2-(3-methylimidazol-4-yl)-1H-pyrrolo[3,2-c]pyridin-6-yl]benzene-1,3-diamine]	50 to 100%
Cc1cccc(Nc2cc3[nH]c(-c4cncn4C)cc3cn2)c1 [Compound 105, 2-(3-methylimidazol-4-yl)-N-(m-tolyl)-1H-pyrrolo[3,2-c]pyridin-6-amine]	50 to 100%
Cn1cncc1-c1cc2cnc(Nc3ccc(F)cc3)cc2[nH]1 [Compound 106, N-(4-fluorophenyl)-2-(3-methylimidazol-4-yl)-1H-pyrrolo[3,2-c]pyridin-6-amine]	50 to 100%
